For 16 molecules, mortality and pest or weed control results are on record in patent publication US4152436A, “Acylated pentadienone hydrazone, method for preparing the same, and use as fire ant control agents” (American Cyanamid Company, priority 1978, dated 1979).

Common to all, as to format: in vivo
The subject of experiment [1] is Southern Armyworm [Spodoptera eridania (Cramer)]. As to the kind of experiment: whole plant or invertebrate. Particulars: for mortality at 10 ppm / mortality at 100 ppm / mortality at 1000 ppm: 48 h, read-out: % kill, Southern Armyworm 3rd Instar; for pest or weed control at 1000 µg/mL: 168 h, second leaf, 7 days from original treatment, read-out: % kill, Southern Armyworm 3rd Instar, 7 days (residual activity). Here is the method: Southern Armyworm [Spodoptera eridania ([…] bean plant with just the primary leaves expanded to 7.6 to 10 cm is dipped for 3 seconds with agitation in a 1000 ppm solution and set in a hood to dry. […] The dish is covered and held at 26.7° C. After 2 days mortality counts and estimates of the amount of feeding are made. Compounds showing partial kill and/or inhibition of feeding are held for an extra day for further observations. All compounds showing activity as defined above are retested, using the second leaf on the bean plant, after an interval of 7 days from original treatment, as an assay of residual activity. Compounds rated active (8 or 9) are further tested at reduced concentrations in 50% acetone:50% water.

Experiment [2] deals with Cabbage Looper [Trichoplusia ni (Hubner)]. As to the kind of experiment: Insecticide test, cabbage looper 3rd instar. As to conditions: 48 h, 2 days, 26.7° C., read-out: % kill, Cabbage Looper 3rd Instar. Here is the method: Cabbage Looper [Trichoplusia ni (Hubner)]
A primary leaf of a cotton plant is dipped in the test solution and agitated for 3 seconds. It is then set in a hood to dry. Following this, the leaf is placed in a 10 cm petri dish containing a moist filter paper at the bottom and 10 third-instar loopers. The dish is covered and held at 26.7° C. After 2 days, mortality counts and estimates of feeding damage are recorded. Those materials showing partial kill and/or inhibition of feeding are held for another day for further observations.
(§1) Compounds rated active (8 or 9) are further tested at reduced concentrations in 50% acetone:50% water.

The subject of experiment [3] is Tobacco Budworm [Heliothis virescens (Fabricius)]. As to the kind of experiment: Insecticide test, tobacco budworm 1st instar (eggs / newly hatched larvae on dipped cotton leaf). Particulars: 72 h, read-out: % kill, Tobacco Budworm 1st Instar. Here is the method: Tobacco Budworm [Heliothis virescens (Fabricius)]
A cotton plant with 2 true leaves expanded is dipped for 3 seconds with agitation in a 300 ppm solution. A 1.25 to 2 cm square of cheesecloth with about 50 to 100 budworm eggs 0-24 hours old is also dipped in the test solution and placed on one leaf to dry. The leaf with the treated budworm eggs is removed from the plant and placed in a 236.6 ml (8-oz) Dixie cup with a wet 5 cm piece of dental wick and covered with a lid. The other leaf is placed in a similar cup with a wick and a piece of cheesecloth infested with 50-100 newly hatched larvae is added before covering the cup with a lid. After 3 days at 26.7° C., observations of egg hatch are made as well as kill of newly hatched larvae, any inhibition of feeding, or interference of any sort with normal development.
as §1

For experiment [4] the test system is unchanged. The experiment can be described thus: whole plant or invertebrate. Particulars: 72 h, read-out: % kill, Tobacco Budworm 3rd Instar. Here is the method: Third Instar Three cotton plants with just expanded cotyledons are dipped in a 1000 ppm solution, and placed in a hood to dry. When dry, each cotyledon is cut in half and each half is placed in one of ten 29.6 ml plastic medicine cups containing a 1.25 cm dental wick saturated with water, and one third instar budworm larva is added. The cup is capped and held for 3 days at 26.7° C., after which mortality counts are made. Compounds rated active (8 or 9) are further tested at reduced concentrations in 50% acetone:50% water.

With `CCCCC(CC)C(=O)N1CC(C)(C)CN=C1NN=C(C=Cc1ccc(C(F)(F)F)cc1)C=Cc1ccc(C(F)(F)F)cc1` (stereo not drawn), in experiment [1], the mortality at 10 ppm amounted to 0%, the mortality at 100 ppm worked out at 100% and the mortality at 1000 ppm is 100%. In addition, in experiment [2], the mortality at 10 ppm came to 80%, the mortality at 100 ppm came to 90% and the mortality at 1000 ppm came out at 100%. Besides, the mortality at 300 ppm in experiment [3] was 0%. Also, in experiment [4], the mortality at 100 ppm is 40% and the mortality at 1000 ppm is 100%.
Consider `CC1(C)CN=C(NN=C(C=Cc2ccc(C(F)(F)F)cc2)C=Cc2ccc(C(F)(F)F)cc2)N(C(=O)C=Cc2ccccc2)C1`, for which, in experiment [1], the mortality at 1000 ppm is 0%. Further, the mortality at 300 ppm in experiment [3] stood at 0%.
Regarding `CC1(C)CN=C(NN=C(C=Cc2ccc(C(F)(F)F)cc2)C=Cc2ccc(C(F)(F)F)cc2)N(C(=O)c2ccc(C(C)(C)C)cc2)C1`, in experiment [1], the mortality at 10 ppm was found to be 0%, the mortality at 100 ppm worked out at 90%, the mortality at 1000 ppm came out at 100% and the pest or weed control at 1000 µg/mL is 0%. Moreover, in experiment [2], the mortality at 10 ppm was found to be 0%, the mortality at 100 ppm came to 100% and the mortality at 1000 ppm turned out to be 100%. In experiment [3], the mortality at 10 ppm was in the range of 0 to 40%, the mortality at 100 ppm lay within 0 to 40% and the mortality at 300 ppm lay within 86 to 95%. In experiment [4], the mortality at 10 ppm worked out at 0%, the mortality at 100 ppm came to 100% and the mortality at 1000 ppm turned out to be 100%.
For the molecule `CC1(C)CN=C(NN=C(C=Cc2ccc(Cl)cc2)C=Cc2ccc(Cl)cc2)N(C(=O)c2ccccc2)C1`, in experiment [1], the mortality at 10 ppm came to 30%, the mortality at 100 ppm amounted to 100%, the mortality at 1000 ppm was determined as 100% and the pest or weed control at 1000 µg/mL was determined as 100%. In addition, in experiment [2], the mortality at 10 ppm was 0%, the mortality at 100 ppm came out at 100% and the mortality at 1000 ppm was determined as 100%. Also, in experiment [3], the mortality at 10 ppm lay in the range of 0 to 40% and the mortality at 100 ppm lay in the range of 41 to 60%. In addition, in experiment [4], the mortality at 100 ppm is 0% and the mortality at 1000 ppm amounted to 100%.
Turning to `O=C(c1ccccc1)N1CCCCN=C1NN=C(C=Cc1ccc(C(F)(F)F)cc1)C=Cc1ccc(C(F)(F)F)cc1`, the mortality at 300 ppm in experiment [3] lay in the range of 0 to 40%.
Still for that read-out and setting: the result for `CCCCCCCC(=O)N1CCCCN=C1NN=C(C=Cc1ccc(C(F)(F)F)cc1)C=Cc1ccc(C(F)(F)F)cc1` reads 0 to 40%; that for `CCCCCCCCCCCCCCCC(=O)N1CCCCN=C1NN=C(C=Cc1ccc(C(F)(F)F)cc1)C=Cc1ccc(C(F)(F)F)cc1`, 0 to 40%.
For `CC(=O)N1CCCCN=C1NN=C(C=Cc1ccc(C(F)(F)F)cc1)C=Cc1ccc(C(F)(F)F)cc1`, in experiment [1], the mortality at 10 ppm turned out to be 100%, the mortality at 100 ppm was found to be 0%, the mortality at 1000 ppm stood at 100% and the pest or weed control at 1000 µg/mL is 100%. For the same molecule, in experiment [2], the mortality at 10 ppm was found to be 0%, the mortality at 100 ppm was 100% and the mortality at 1000 ppm worked out at 100%. In addition, in experiment [3], the mortality at 10 ppm lay in the range of 0 to 40% and the mortality at 100 ppm was in the range of 41 to 60%. In experiment [4], the mortality at 10 ppm turned out to be 0%, the mortality at 100 ppm is 70% and the mortality at 1000 ppm stood at 100%.
With `CC(=O)N1CC(C)(C)CN=C1N(N=C(C=Cc1ccc(C(F)(F)F)cc1)C=Cc1ccc(C(F)(F)F)cc1)C(C)=O`, in experiment [1], the mortality at 10 ppm came to 0%, the mortality at 100 ppm stood at 100%, the mortality at 1000 ppm came to 100% and the pest or weed control at 1000 µg/mL amounted to 0%. For the same molecule, in experiment [2], the mortality at 10 ppm was 41 to 60%, the mortality at 100 ppm was 86 to 95% and the mortality at 1000 ppm was found to be 100%. In experiment [4], the mortality at 100 ppm is 0% and the mortality at 1000 ppm was determined as 100%.
As to `CC(C)=CC(=O)N1CC(C)(C)CN=C1NN=C(C=Cc1ccc(C(F)(F)F)cc1)C=Cc1ccc(C(F)(F)F)cc1` [R1=CF3, R3=(CH3)2 CCH], the mortality at 100 ppm came to 0% in experiment [1], 10% in experiment [2] and 0% in experiment [4]. Moreover, the mortality at 1000 ppm in experiment [1], in experiment [2] and in experiment [4] was 100% throughout. The pest or weed control at 1000 µg/mL in experiment [1] came out at 0%.
In the case of `CCCCCC(=O)N1CC(C)(C)CN=C1NN=C(C=Cc1ccc(C(F)(F)F)cc1)C=Cc1ccc(C(F)(F)F)cc1` [R1=CF3, R3=n-C5 H11], in experiment [1], the mortality at 10 ppm was found to be 0%, the mortality at 100 ppm was found to be 100% and the mortality at 1000 ppm was found to be 100%. Besides, in experiment [2], the mortality at 10 ppm came out at 0%, the mortality at 100 ppm turned out to be 50% and the mortality at 1000 ppm came to 100%. Further, in experiment [4], the mortality at 10 ppm was 0%, the mortality at 100 ppm came to 70% and the mortality at 1000 ppm is 100%.
For `CCCCCCCC(=O)N1CC(C)(C)CN=C1NN=C(C=Cc1ccc(C(F)(F)F)cc1)C=Cc1ccc(C(F)(F)F)cc1` [R1=CF3, R3=n-C7 H15], in experiment [1], the mortality at 10 ppm stood at 0%, the mortality at 100 ppm amounted to 90% and the mortality at 1000 ppm turned out to be 100%. Moreover, in experiment [2], the mortality at 100 ppm was found to be 90% and the mortality at 1000 ppm stood at 100%. Also, in experiment [4], the mortality at 100 ppm was 0% and the mortality at 1000 ppm is 100%.
As for `CCCCCCCCCC(=O)N1CC(C)(C)CN=C1NN=C(C=Cc1ccc(C(F)(F)F)cc1)C=Cc1ccc(C(F)(F)F)cc1` [R1=CF3, R3=n-C9 H19], the results for the mortality at 100 ppm in experiment [1], in experiment [2] and in experiment [4] were 0%, 60% and 100%, respectively. Besides, the mortality at 1000 ppm in experiment [1], in experiment [2] and in experiment [4] was 100% throughout. The mortality at 10 ppm in experiment [2] and in experiment [4] was 0% each time.
As to `CCCCCCCCCCCC(=O)N1CC(C)(C)CN=C1NN=C(C=Cc1ccc(C(F)(F)F)cc1)C=Cc1ccc(C(F)(F)F)cc1` [R1=CF3, R3=n-C11 H23], in experiment [1], the mortality at 10 ppm was 0%, the mortality at 100 ppm is 100% and the mortality at 1000 ppm was determined as 100%. Also, in experiment [2], the mortality at 10 ppm is 0%, the mortality at 100 ppm is 70% and the mortality at 1000 ppm turned out to be 100%. In experiment [4], the mortality at 10 ppm turned out to be 0%, the mortality at 100 ppm was found to be 70% and the mortality at 1000 ppm was 100%.
For the molecule `CCCCCCCCCCCCCC(=O)N1CC(C)(C)CN=C1NN=C(C=Cc1ccc(C(F)(F)F)cc1)C=Cc1ccc(C(F)(F)F)cc1` [R1=CF3, R3=n-C13 H27], in experiment [1], the mortality at 100 ppm came out at 0% and the mortality at 1000 ppm was 100%. Also, in experiment [2], the mortality at 10 ppm worked out at 0%, the mortality at 100 ppm is 60% and the mortality at 1000 ppm is 100%. Moreover, in experiment [4], the mortality at 10 ppm was determined as 0%, the mortality at 100 ppm turned out to be 90% and the mortality at 1000 ppm worked out at 100%.
Regarding `CCCCCCCCCCCCCCCC(=O)N1CC(C)(C)CN=C1NN=C(C=Cc1ccc(Cl)cc1)C=Cc1ccc(Cl)cc1` [R1=Cl, R3=n-C15 H31], in experiment [1], the mortality at 100 ppm worked out at 0%, the mortality at 1000 ppm was determined as 100% and the pest or weed control at 1000 µg/mL came to 100%. Moreover, in experiment [2], the mortality at 100 ppm was 0% and the mortality at 1000 ppm stood at 100%. For the same molecule, in experiment [4], the mortality at 100 ppm amounted to 0% and the mortality at 1000 ppm amounted to 100%.
